From the CheMixHub viscosity set

Assay: xn = mol fraction of the nth substance listed

O=[N+]([O-])c1ccccc1 + COC(C)(C)C
viscosity [mPa·s], 101.33 kPa
Settings | x2 = 0.0921 | x2 = 0.1852 | x2 = 0.2942 | x2 = 0.3906 | x2 = 0.4845 | x2 = 0.695 | x2 = 0.7094 | x2 = 0.8055 | x2 = 0.9053
293.15 K | 1.745 | 1.535 | 1.345 | 1.096 | 1.011 | 0.7813 | 0.659 | 0.5509 | 0.4676
298.15 K | 1.625 | 1.402 | 1.203 | 0.9995 | 0.8725 | – | 0.6043 | 0.507 | 0.4335

CCOCCOCCO + CCCN
298.15 K, 101 kPa
Settings | viscosity [mPa·s]
x1 = 0.0118 | 0.374
x1 = 0.0312 | 0.412
x1 = 0.0523 | 0.448
x1 = 0.0786 | 0.495
x1 = 0.099 | 0.533
x1 = 0.1259 | 0.59
x1 = 0.1728 | 0.701
x1 = 0.2037 | 0.789
x1 = 0.2298 | 0.868
x1 = 0.2646 | 0.986
x1 = 0.3048 | 1.133
x1 = 0.3392 | 1.272
x1 = 0.4055 | 1.566
x1 = 0.4419 | 1.745
x1 = 0.4758 | 1.917
x1 = 0.5112 | 2.092
x1 = 0.5558 | 2.317
x1 = 0.5903 | 2.488
x1 = 0.633 | 2.695
x1 = 0.6711 | 2.869
x1 = 0.7054 | 3.013
x1 = 0.7412 | 3.154
x1 = 0.7802 | 3.297
x1 = 0.8328 | 3.464
x1 = 0.8664 | 3.549
x1 = 0.8935 | 3.616
x1 = 0.9187 | 3.674
x1 = 0.9388 | 3.712
x1 = 0.9709 | 3.779

CCCCCCCC + CCO
298.15 K, 101.33 kPa
Settings | viscosity [mPa·s]
x2 = 0.0986 | 0.523
x2 = 0.2153 | 0.533
x2 = 0.3204 | 0.557
x2 = 0.4431 | 0.603
x2 = 0.6117 | 0.686
x2 = 0.7378 | 0.779
x2 = 0.8362 | 0.873
x2 = 0.9134 | 0.973
x2 = 0.9773 | 1.071

O=[N+]([O-])c1ccccc1 + CCO
viscosity [mPa·s], 101.33 kPa
Settings | x1 = 0.0399 | x1 = 0.0856 | x1 = 0.1382 | x1 = 0.1997 | x1 = 0.2723 | x1 = 0.3595 | x1 = 0.4661 | x1 = 0.5995 | x1 = 0.7711
298.15 K | 1.06 | 1.048 | 1.061 | 1.073 | 1.116 | 1.166 | 1.201 | 1.317 | 1.44
303.15 K | 0.9662 | 0.9579 | 0.9691 | 0.9809 | 1.01 | 1.068 | 1.085 | 1.207 | 1.312

ClC(Cl)=C(Cl)Cl + O=[N+]([O-])c1ccccc1
303.15 K, 101 kPa
Settings | viscosity [mPa·s]
x1 = 0.1516 | 1.446
x1 = 0.2128 | 1.376
x1 = 0.2966 | 1.288
x1 = 0.3642 | 1.221
x1 = 0.4582 | 1.144
x1 = 0.5496 | 1.074
x1 = 0.6451 | 1.012
x1 = 0.7624 | 0.941
x1 = 0.8428 | 0.896
x1 = 0.9206 | 0.856
